Among the data in article PMC3906536, “The cyclic AMP phosphodiesterase RegA critically regulates encystation in social and pathogenic amoebas^” (Cellular Signalling, 2014) are IC50 values, retold here.

The structures appear in SMILES notation. pIC50: −log10 of the molar value.

The target of this assay is T1, Acas RegA (cAMP phosphodiesterase RegA) (Acanthamoeba castellanii, UniProt L7WMY9).
T1 construct: 621 aa protein from full cDNA, N-terminal hexahis-tag, expressed in E. coli
T1 sequence (L7WMY9 entry or part of it): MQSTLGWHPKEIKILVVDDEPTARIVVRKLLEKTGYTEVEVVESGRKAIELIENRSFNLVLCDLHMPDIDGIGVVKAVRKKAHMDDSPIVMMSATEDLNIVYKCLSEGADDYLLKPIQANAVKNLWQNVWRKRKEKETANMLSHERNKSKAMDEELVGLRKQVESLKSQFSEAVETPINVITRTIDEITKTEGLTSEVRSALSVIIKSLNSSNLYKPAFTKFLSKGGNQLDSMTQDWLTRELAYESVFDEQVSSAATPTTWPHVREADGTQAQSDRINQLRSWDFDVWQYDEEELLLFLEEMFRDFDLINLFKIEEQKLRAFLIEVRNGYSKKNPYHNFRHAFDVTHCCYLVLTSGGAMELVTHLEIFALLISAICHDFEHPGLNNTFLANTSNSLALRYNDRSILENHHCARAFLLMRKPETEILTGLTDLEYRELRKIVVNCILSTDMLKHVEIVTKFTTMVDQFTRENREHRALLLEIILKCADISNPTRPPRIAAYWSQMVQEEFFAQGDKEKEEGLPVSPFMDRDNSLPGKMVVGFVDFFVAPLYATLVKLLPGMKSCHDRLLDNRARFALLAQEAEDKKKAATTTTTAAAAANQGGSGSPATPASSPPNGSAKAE
As to the kind of experiment: inhibition of 3H-cAMP hydrolysis by purified RegA. The class given is biochemical.
A word on the pIC50: it is −log10 of the IC50, conventionally taken in molar units. A low value points to a large IC50. Take `Clc1cccc(Nc2nnc(-c3ccccc3)c3ccccc23)c1` [MY-5445]: the pIC50 was 3.40.
Next, `OCCN(CCO)c1nc(N2CCCCC2)c2nc(N(CCO)CCO)nc(N3CCCCC3)c2n1` [dipyridamole]: 4.92.
Next, `COc1cc2c(cc1OC)-c1c/c(=N\c3c(C)cc(C)cc3C)n(C)c(=O)n1CC2` [trequinsin]: 4.52.
